According to PubChem BioAssay AID1259408 (Genetic Toxicology Data Bank (GENE-TOX), 2018):
Active and inactive are the calls of the source. How the calls were made is not given here.

Tested on: GENE-TOX genotoxicity assays, various organisms and cells
Test: GENE-TOX mutagenicity studies
Conditions: for call: Assay Type: In vivo carcinogenicity studies, Assay Code: CCG+
[1] = Species/Cell Type: Nonhuman, Assay Type: Sister-chromatid exchange (SCE) in vitro, Assay Code: SC2T, Evaluation Type: Evaluation B (Post-1980)
[2] = Species/Cell Type: Saccharomyces cerevisiae, Assay Type: Mitotic recombination or gene conversion, Assay Code: YEH-, Evaluation Type: Evaluation A (Pre-1980)
[3] = Species/Cell Type: Salmonella typhimurium (one or more of the five standard strains: TA98, TA100, TA1535, TA1537, and TA1538), Assay Type: Histidine reverse gene mutation, Ames assay, Assay Code: SAL-, Evaluation Type: Evaluation A (Pre-1980)
[4] = Species/Cell Type: Drosophila melanogaster, Assay Type: Sex-linked recessive lethal gene mutation, Assay Code: SRL+, Evaluation Type: Evaluation A (Pre-1980)
[5] = Species/Cell Type: Mouse, Sex: Male, Assay Type: Sperm morphology, Assay Code: SPI-, Evaluation Type: Evaluation A (Pre-1980)
[6] = Species/Cell Type: Nonhuman, Evaluation Type: Evaluation A (Pre-1980)
[7] = Species/Cell Type: Nonhuman, Assay Type: Sister-chromatid exchange (SCE) in vivo, Assay Code: SC3+, Evaluation Type: Evaluation B (Post-1980)
[8] = Species/Cell Type: Salmonella typhimurium (one or more of the five standard strains: TA98, TA100, TA1535, TA1537, and TA1538), Assay Type: Histidine reverse gene mutation, Ames assay, Assay Code: SAL+*, Activation: With metabolic activation, Evaluation Type: Evaluation A (Pre-1980)
[9] = Species/Cell Type: Allium cepa, Assay Type: Chromosome aberrations, Assay Code: ALC+D, Dose Response: With dose response, Evaluation Type: Evaluation A (Pre-1980)
[10] = Species/Cell Type: Nonhuman, Assay Type: Sister-chromatid exchange (SCE) in vitro, Assay Code: SC2+D, Dose Response: With dose response, Evaluation Type: Evaluation B (Post-1980)
[11] = Species/Cell Type: Salmonella typhimurium (one or more of the five standard strains: TA98, TA100, TA1535, TA1537, and TA1538), Assay Type: Histidine reverse gene mutation, Ames assay, Assay Code: SAL+, Evaluation Type: Evaluation A (Pre-1980)
[12] = Species/Cell Type: Human, Assay Type: Sister-chromatid exchange (SCE) in vitro, Assay Code: SC1T, Evaluation Type: Evaluation B (Post-1980)
[13] = Species/Cell Type: Salmonella typhimurium (one or more of the five standard strains: TA98, TA100, TA1535, TA1537, and TA1538), Assay Type: Histidine reverse gene mutation, Ames assay, Assay Code: SALT, Evaluation Type: Evaluation A (Pre-1980)

Question: How did the mutagenic call (Species/Cell Type: Chinese hamster lung (V79) cells, Assay Type: Forward gene mutation at the HPRT or ouabain locus, Assay Code: V79-, Evaluation Type: Evaluation A (Pre-1980)) turn out when `CCCCCCCCCCCCCC(=O)O[C@@H]1[C@@H](C)[C@@]2(O)[C@@H](C=C(CO)C[C@]3(O)C(=O)C(C)=C[C@@H]23)[C@@H]2C(C)(C)[C@]12OC(C)=O` was run?
Answer: inactive; negative

Question: And the mutagenic call (Species/Cell Type: Escherichia coli polA (W3119 vs P3478), Assay Type: Rec-assay, DNA effects (bacterial DNA repair), Assay Code: RE1T, Evaluation Type: Evaluation A (Pre-1980))?
Answer: no conclusion

Question: What about the mutagenic call (Species/Cell Type: Fischer rat embryo (RLV/1706) cells, Assay Type: Cell transformation, viral enhanced, Assay Code: CTR-, Evaluation Type: Evaluation A (Pre-1980)) of the same compound?
Answer: inactive; negative

Question: And the mutagenic call (Species/Cell Type: Human, Assay Type: Sister-chromatid exchange (SCE) in vitro, Assay Code: SC1+, Evaluation Type: Evaluation B (Post-1980))?
Answer: active; positive

Question: And the mutagenic call (Species/Cell Type: Mouse (C3H/10T1/2) cells, Assay Type: Cell transformation, Assay Code: CTH-, Evaluation Type: Evaluation A (Pre-1980))?
Answer: inactive; negative

Question: And the mutagenic call (Species/Cell Type: Nonhuman, Assay Type: Sister-chromatid exchange (SCE) in vitro, Assay Code: SC2+, Evaluation Type: Evaluation A (Pre-1980))?
Answer: active; positive

Question: What about the mutagenic call [1] of the same compound?
Answer: no conclusion

Question: And the mutagenic call [2]?
Answer: inactive; negative

Question: What about the mutagenic call [3] of the same compound?
Answer: inactive; negative

Question: And the mutagenic call (Species/Cell Type: Syrian hamster embryo (SHE) cells, Assay Type: Cell transformation, clonal assay, Assay Code: CTC-, Evaluation Type: Evaluation A (Pre-1980))?
Answer: inactive; negative

Question: Which mutagenic call [4] does the source give for `Cc1ccc(N)cc1N` here?
Answer: active; positive

Question: What about the mutagenic call [5] of the same compound?
Answer: inactive; negative

Question: And the mutagenic call (Species/Cell Type: Neurospora crassa, Assay Type: Aneuploidy, chromosome aberrations, Assay Code: NEN-, Evaluation Type: Evaluation A (Pre-1980))?
Answer: inactive; negative

Question: And the call [6]?
Answer: active; positive

Question: What about the mutagenic call [7] of the same compound?
Answer: active; positive

Question: What about the mutagenic call [8] of the same compound?
Answer: active; positive

Question: And the mutagenic call (Species/Cell Type: Syrian hamster embryo (SHE) cells, Assay Type: Cell transformation, clonal assay, Assay Code: CTCT, Evaluation Type: Evaluation A (Pre-1980))?
Answer: no conclusion

Question: How did the mutagenic call [2] turn out when `Clc1ccc(Br)cc1` was run?
Answer: inactive; negative

Question: And the mutagenic call [3]?
Answer: inactive; negative

Question: For `CCCCC/C=C/C=C/C(=O)NCC(C)C`, which mutagenic call (Species/Cell Type: Allium cepa, Assay Type: Chromosome aberrations, Assay Code: ALC+, Evaluation Type: Evaluation A (Pre-1980)) is on record?
Answer: active; positive

Question: `CCn1c(=O)n(C)c2c(=O)n(C)c(=O)n(C)c21` was tested. Which mutagenic call [9] did it give?
Answer: active; positive

Question: `CCOS(=O)(=O)CC` was tested. Which mutagenic call (Species/Cell Type: Arabidopsis species, Assay Type: Gene mutation, Assay Code: ARM+, Evaluation Type: Evaluation A (Pre-1980)) did it give?
Answer: active; positive

Question: And the mutagenic call (Species/Cell Type: Hordeum vulgare (barley), Assay Type: Chromosome aberrations, Assay Code: HOC-, Evaluation Type: Evaluation A (Pre-1980))?
Answer: inactive; negative

Question: What about the mutagenic call (Species/Cell Type: Hordeum vulgare (barley), Assay Type: Gene mutation, Assay Code: HOM+D, Dose Response: With dose response, Evaluation Type: Evaluation A (Pre-1980)) of the same compound?
Answer: active; positive

Question: Which mutagenic call (Species/Cell Type: Bacillus subtilis (H17 vs M45T), Assay Type: Rec-assay, spot test, DNA effects (bacterial DNA repair), Assay Code: REX+, Evaluation Type: Evaluation A (Pre-1980)) does the source give for `CN(N=O)C(=O)Oc1ccccc1Cl` here?
Answer: active; positive

Question: What about the mutagenic call (Species/Cell Type: Escherichia coli WP2, Assay Type: Tryptophan reverse gene mutation, Assay Code: WP2+, Evaluation Type: Evaluation A (Pre-1980)) of the same compound?
Answer: active; positive

Question: How did the mutagenic call [10] turn out when `C=C1C/C(=C/C)C(=O)O[C@@H]2CCN3CC=C(COC(=O)[C@]1(C)O)[C@H]23` was run?
Answer: active; positive

Question: With `O=c1[nH]cccc1[N+](=O)[O-]` as the compound, how does the mutagenic call [11] read?
Answer: active; positive

Question: For `Cl/C=C\CCl`, which mutagenic call [11] is on record?
Answer: active; positive

Question: With `CCCCC/C=C\C/C=C\C/C=C\C/C=C\CCCC(=O)O` as the compound, how does the mutagenic call [12] read?
Answer: no conclusion

Question: What about the mutagenic call (Species/Cell Type: Mammalian polychromatic erythrocytes, Assay Type: Micronucleus test, chromosome aberrations, Assay Code: MNTT, Evaluation Type: Evaluation B (Post-1980)) of the same compound?
Answer: no conclusion

Question: What about the mutagenic call [1] of the same compound?
Answer: no conclusion

Question: What does the source list for `CN(C)CCCN1c2ccccc2Sc2ccc(C(F)(F)F)cc21`?
Answer: mutagenic call (Species/Cell Type: Nonhuman bone marrow, Assay Type: Chromosome aberrations, in vivo, Assay Code: CY#-, Evaluation Type: Evaluation A (Pre-1980)): inactive; negative; mutagenic call (Species/Cell Type: Nonhuman, Assay Type: Chromosome aberrations in vitro, Assay Code: CY&+, Evaluation Type: Evaluation A (Pre-1980)): active; positive; mutagenic call (Species/Cell Type: Rodents, Sex: Male, Assay Type: Dominant lethal test, Assay Code: DLT+, Evaluation Type: Evaluation A (Pre-1980)): active; positive; mutagenic call (Species/Cell Type: Salmonella typhimurium, Assay Type: Forward and reverse gene mutation, host-mediated assay, Assay Code: HMA-, Evaluation Type: Evaluation A (Pre-1980)): inactive; negative

Question: How did the call [6] turn out when `c1ccc2c(c1)-c1ccc3ccc4cccc5cc-2c1c3c45` was run?
Answer: active; positive

Question: How did the mutagenic call (Species/Cell Type: Human diploid fibroblasts, Assay Type: Unscheduled DNA synthesis (UDS) in vitro, DNA effects, Assay Code: UDH+*, Activation: With metabolic activation, Evaluation Type: Evaluation A (Pre-1980)) turn out when `Nc1c(Cl)cc(-c2cc(Cl)c(N)c(Cl)c2)cc1Cl` was run?
Answer: active; positive

Question: How did the mutagenic call (Species/Cell Type: Human lymphocytes, Assay Type: Sister-chromatid exchange (SCE) in vitro, Assay Code: SCLT, Evaluation Type: Evaluation B (Post-1980)) turn out when `Cn1c(=O)c2c(ncn2CC(O)CO)n(C)c1=O` (stereo not drawn) was run?
Answer: no conclusion

Question: And the mutagenic call [12]?
Answer: no conclusion

Question: `COC(=O)N/N=C/c1c[n+]([O-])c2ccccc2[n+]1[O-]` was tested. Which mutagenic call (Species/Cell Type: Mammalian polychromatic erythrocytes, Assay Type: Micronucleus test, chromosome aberrations, Assay Code: MNT+, Evaluation Type: Evaluation B (Post-1980)) did it give?
Answer: active; positive

Question: Which mutagenic call (Species/Cell Type: Mammalian polychromatic erythrocytes, Assay Type: Micronucleus test, chromosome aberrations, Assay Code: MNT+U, Dose Response: Unconfirmed positive response, Evaluation Type: Evaluation A (Pre-1980)) does the source give for `CS(=O)(=O)OCCNP1(=O)OCCCN1CCCl` (stereo not drawn) here?
Answer: active; positive

Question: Which mutagenic call [9] does the source give for `C=CCn1c(=O)n(C)c2c(=O)n(C)c(=O)n(C)c21` here?
Answer: active; positive

Question: How did the mutagenic call (Species/Cell Type: Human lymphocytes, Assay Type: Sister-chromatid exchange (SCE) in vitro, Assay Code: SCL+D*, Activation: With metabolic activation, Dose Response: With dose response, Evaluation Type: Evaluation B (Post-1980)) turn out when `Cc1cc2c(c3ccc4ccccc4c13)CCC2=O` was run?
Answer: active; positive

Question: And the mutagenic call (Species/Cell Type: Human, Assay Type: Sister-chromatid exchange (SCE) in vitro, Assay Code: SC1+D*, Activation: With metabolic activation, Dose Response: With dose response, Evaluation Type: Evaluation B (Post-1980))?
Answer: active; positive

Question: What about the mutagenic call [7] of the same compound?
Answer: active; positive

Question: What about the mutagenic call [8] of the same compound?
Answer: active; positive

Question: What does the source list for `COc1ccc(N)cc1N`?
Answer: mutagenic call [4]: active; positive; mutagenic call (Species/Cell Type: Mammalian polychromatic erythrocytes, Assay Type: Micronucleus test, chromosome aberrations, Assay Code: MNTT, Evaluation Type: Evaluation A (Pre-1980)): no conclusion; mutagenic call [5]: inactive; negative; mutagenic call (Species/Cell Type: Neurospora crassa, Assay Type: Aneuploidy, chromosome aberrations, Assay Code: NEN+, Evaluation Type: Evaluation A (Pre-1980)): active; positive; call [6]: active; positive; mutagenic call [7]: active; positive; mutagenic call (Species/Cell Type: Rodents, Sex: Male, Assay Type: Dominant lethal test, Assay Code: DLT-, Evaluation Type: Evaluation A (Pre-1980)): inactive; negative; mutagenic call [8]: active; positive

Question: How did the mutagenic call [13] turn out when `CC[C@@]1(O)C[C@H](O[C@H]2C[C@H](N(C)C)[C@H](O)[C@H](C)O2)c2c(cc3c(c2O)C(=O)c2c(O)cccc2C3=O)[C@H]1C(=O)OC` was run?
Answer: no conclusion

Question: How did the mutagenic call (Species/Cell Type: Human lymphocytes, Assay Type: Sister-chromatid exchange (SCE) in vivo, Assay Code: SCY+, Evaluation Type: Evaluation B (Post-1980)) turn out when `CC(C(=O)O)c1cccc(C(=O)c2ccccc2)c1` (stereo not drawn) was run?
Answer: active; positive

Question: Which mutagenic call (Species/Cell Type: Chinese hamster lung (V79) cells, Assay Type: Forward gene mutation at the HPRT or ouabain locus, Assay Code: V79-*, Activation: With metabolic activation, Evaluation Type: Evaluation A (Pre-1980)) does the source give for `O[C@@H]1C=Cc2ccc3cc4ccccc4cc3c2[C@H]1O` here?
Answer: inactive; negative

Question: What about the mutagenic call [10] of the same compound?
Answer: active; positive

Question: And the mutagenic call [13]?
Answer: no conclusion

Question: For `CCCCC[CH2][Hg][Br]`, which mutagenic call [9] is on record?
Answer: active; positive

Question: What does the source list for `CC(=O)Nc1ccc(O)cc1`?
Answer: mutagenic call (Species/Cell Type: Human lymphocytes, Assay Type: Sister-chromatid exchange (SCE) in vitro, Assay Code: SCL-, Evaluation Type: Evaluation B (Post-1980)): inactive; negative; mutagenic call [13]: no conclusion
